{"source": "paper PMC5218480", "about": "(PLoS ONE, 2017)", "tested_on": "MV-4-11 cells", "assay": "Gene expression microarray analysis (Affymetrix PrimeView) and GSEA", "type": "cell-based, human", "parameters": "RFU PODN (11730768_x_at) / Fold change /veh PODN (11730768_x_at) / RFU LINC00158 (11744669_a_at) / Fold change /veh LINC00158 (11744669_a_at) / RFU DUSP10 (11751237_a_at) / Fold change /veh DUSP10 (11751237_a_at) / RFU ID3 (11757404_x_at) / Fold change /veh ID3 (11757404_x_at) / RFU PLEKHG5 (11737974_s_at) / Fold change /veh PLEKHG5 (11737974_s_at) / RFU LRRC4B (11730491_at) / Fold change /veh LRRC4B (11730491_at) / RFU GIMAP4 (11747438_a_at) / Fold change /veh GIMAP4 (11747438_a_at) / RFU KRT8 (11758183_x_at) / Fold change /veh KRT8 (11758183_x_at) / RFU CNN1 (11734310_a_at) / Fold change /veh CNN1 (11734310_a_at) / RFU VPS37D (11726825_at) / Fold change /veh VPS37D (11726825_at) / RFU C10orf10 (11716522_x_at) / Fold change /veh C10orf10 (11716522_x_at) / RFU KIR2DL2 /// KIR2DL4 /// KIR2DL5A /// KIR2DL5B /// KIR2DS1 /// KIR2DS2 /// KIR2DS3 /// KIR2DS4 /// KIR3DL3 /// KIR3DL3 /// KIR3DS1 (11738374_at) / Fold change /veh KIR2DL2 /// KIR2DL4 /// KIR2DL5A /// KIR2DL5B /// KIR2DS1 /// KIR2DS2 /// KIR2DS3 /// KIR2DS4 /// KIR3DL3 /// KIR3DL3 /// KIR3DS1 (11738374_at) / RFU C1QL1 (11718748_at) / Fold change /veh C1QL1 (11718748_at) / RFU TMPRSS4 (11747572_a_at) / Fold change /veh TMPRSS4 (11747572_a_at) / RFU HAMP (11756126_x_at) / Fold change /veh HAMP (11756126_x_at) / RFU RNFT2 (11725882_a_at) / Fold change /veh RNFT2 (11725882_a_at) / RFU NR4A2 (11747474_a_at) / Fold change /veh NR4A2 (11747474_a_at) / RFU ABCC12 (11746883_a_at) / Fold change /veh ABCC12 (11746883_a_at) / RFU TMEM136 (11760407_x_at) / Fold change /veh TMEM136 (11760407_x_at) / RFU CLDN22 /// WWC2 (11732394_at) / Fold change /veh CLDN22 /// WWC2 (11732394_at) / RFU HLA-DPB1 (11760878_x_at) / Fold change /veh HLA-DPB1 (11760878_x_at) / RFU SPINT1 (11716480_a_at) / Fold change /veh SPINT1 (11716480_a_at) / RFU GAP43 (11754022_s_at) / Fold change /veh GAP43 (11754022_s_at) / RFU A4GNT (11735810_at) / Fold change /veh A4GNT (11735810_at) / RFU PRB3 (11715151_x_at) / Fold change /veh PRB3 (11715151_x_at) / RFU TUBB4B (11761932_at) / Fold change /veh TUBB4B (11761932_at) / RFU CAPN14 (11732068_a_at) / Fold change /veh CAPN14 (11732068_a_at) / RFU TMCC2 (11721928_a_at) / Fold change /veh TMCC2 (11721928_a_at) / RFU IRGQ (11745062_a_at) / Fold change /veh IRGQ (11745062_a_at) / RFU FAM174B (11720279_a_at) / Fold change /veh FAM174B (11720279_a_at) / RFU TMPRSS4 (11748680_a_at) / Fold change /veh TMPRSS4 (11748680_a_at) / RFU FAM212B (11763350_a_at) / Fold change /veh FAM212B (11763350_a_at) / RFU PLEKHG5 (11743358_a_at) / Fold change /veh PLEKHG5 (11743358_a_at) / RFU ZSCAN30 (11745921_a_at) / Fold change /veh ZSCAN30 (11745921_a_at) / RFU CMKLR1 (11741424_a_at) / Fold change /veh CMKLR1 (11741424_a_at) / RFU LOC101060620 /// MAPK8IP1 (11723275_at) / Fold change /veh LOC101060620 /// MAPK8IP1 (11723275_at) / RFU SPTSSB (11747773_x_at) / Fold change /veh SPTSSB (11747773_x_at) / RFU PRSS12 (11739890_at) / Fold change /veh PRSS12 (11739890_at) / RFU BIN1 (11741810_x_at) / Fold change /veh BIN1 (11741810_x_at) / RFU WNT11 (11732464_a_at) / Fold change /veh WNT11 (11732464_a_at) / RFU C10orf10 (11716521_a_at) / Fold change /veh C10orf10 (11716521_a_at) / RFU C5orf56 (11738089_at) / Fold change /veh C5orf56 (11738089_at) / RFU CYB561 (11721691_x_at) / Fold change /veh CYB561 (11721691_x_at) / RFU ANKRD19P (11752326_a_at) / Fold change /veh ANKRD19P (11752326_a_at) / RFU OR2T12 /// OR2T33 /// OR2T8 (11738714_s_at) / Fold change /veh OR2T12 /// OR2T33 /// OR2T8 (11738714_s_at) / RFU VCAN (11748164_a_at) / Fold change /veh VCAN (11748164_a_at) / RFU JSRP1 (11732532_at) / Fold change /veh JSRP1 (11732532_at) / RFU KRTAP10-11 (11738290_x_at) / Fold change /veh KRTAP10-11 (11738290_x_at) / RFU MYO3A (11730013_a_at) / Fold change /veh MYO3A (11730013_a_at) / RFU EBF3 (11725865_a_at) / Fold change /veh EBF3 (11725865_a_at) / RFU CAMK2N1 (11719241_x_at) / Fold change /veh CAMK2N1 (11719241_x_at) / RFU C5orf56 (11738088_a_at) / Fold change /veh C5orf56 (11738088_a_at) / RFU OLFML3 (11715873_a_at) / Fold change /veh OLFML3 (11715873_a_at) / RFU LOC100653217 /// NTM (11731650_a_at) / Fold change /veh LOC100653217 /// NTM (11731650_a_at) / RFU MAPK11 (11762145_a_at) / Fold change /veh MAPK11 (11762145_a_at) / RFU FIZ1 (11724087_x_at) / Fold change /veh FIZ1 (11724087_x_at) / RFU OASL (11726364_x_at) / Fold change /veh OASL (11726364_x_at) / RFU SOX15 (11748057_x_at) / Fold change /veh SOX15 (11748057_x_at) / RFU CD79A (11719716_a_at) / Fold change /veh CD79A (11719716_a_at) / RFU HIST1H1D (11736915_at) / Fold change /veh HIST1H1D (11736915_at) / RFU CASKIN2 (11723855_a_at) / Fold change /veh CASKIN2 (11723855_a_at) / RFU LOC730098 (11760151_x_at) / Fold change /veh LOC730098 (11760151_x_at) / RFU OR4N2 (11742367_at) / Fold change /veh OR4N2 (11742367_at) / RFU PRRT2 (11749266_a_at) / Fold change /veh PRRT2 (11749266_a_at) / RFU SNX32 (11753110_a_at) / Fold change /veh SNX32 (11753110_a_at) / RFU CDHR5 (11726645_a_at) / Fold change /veh CDHR5 (11726645_a_at) / RFU RCAN1 (11760418_a_at) / Fold change /veh RCAN1 (11760418_a_at) / RFU FAM167A (11723789_a_at) / Fold change /veh FAM167A (11723789_a_at) / RFU FAM26E (11764081_at) / Fold change /veh FAM26E (11764081_at) / RFU ISYNA1 (11749810_s_at) / Fold change /veh ISYNA1 (11749810_s_at) / RFU ACY1 (11761880_at) / Fold change /veh ACY1 (11761880_at) / RFU 11764098_at / Fold change /veh 11764098_at / RFU SAMD14 (11745864_x_at) / Fold change /veh SAMD14 (11745864_x_at) / RFU NPB (11741838_a_at) / Fold change /veh NPB (11741838_a_at) / RFU TMPRSS6 (11731388_a_at) / Fold change /veh TMPRSS6 (11731388_a_at) / RFU KRTAP10-2 (11738614_at) / Fold change /veh KRTAP10-2 (11738614_at) / RFU ARHGAP8 /// PRR5-ARHGAP8 (11727945_x_at) / Fold change /veh ARHGAP8 /// PRR5-ARHGAP8 (11727945_x_at) / RFU KRTAP5-7 /// NADSYN1 (11734609_at) / Fold change /veh KRTAP5-7 /// NADSYN1 (11734609_at) / RFU RASL12 (11751679_a_at) / Fold change /veh RASL12 (11751679_a_at) / RFU CDKN2B (11736163_a_at) / Fold change /veh CDKN2B (11736163_a_at) / RFU PRF1 (11729649_at) / Fold change /veh PRF1 (11729649_at) / RFU, ZNF638 /// ZNF638-IT1 / Fold change vs veh, ZNF638 /// ZNF638-IT1 / RFU, PANK3 / Fold change vs veh, PANK3 / RFU, SH3YL1 / Fold change vs veh, SH3YL1 / RFU, ZEB2 / Fold change vs veh, ZEB2 / RFU, NRIP1 / Fold change vs veh, NRIP1 / RFU, PTTG1IP / Fold change vs veh, PTTG1IP / RFU, CAPN2 / Fold change vs veh, CAPN2 / RFU, MED14 / Fold change vs veh, MED14 / RFU, SNORA58 / Fold change vs veh, SNORA58 / RFU, C1orf63 / Fold change vs veh, C1orf63 / RFU, LRRFIP1 / Fold change vs veh, LRRFIP1 / RFU, NDUFAF7 / Fold change vs veh, NDUFAF7 / RFU, SLC12A2 / Fold change vs veh, SLC12A2 / RFU, IBTK / Fold change vs veh, IBTK / RFU, ESF1 / Fold change vs veh, ESF1 / Fold change vs veh, TMEM50B / RFU, TAOK1 / Fold change vs veh, TAOK1 / RFU, ACBD3 / Fold change vs veh, ACBD3 / RFU, TMA16 / Fold change vs veh, TMA16 / RFU, RWDD3 / Fold change vs veh, RWDD3 / RFU, BCAT1 / Fold change vs veh, BCAT1 / RFU, EDEM3 / Fold change vs veh, EDEM3 / RFU, TMEM33 / Fold change vs veh, TMEM33 / RFU, WDR75 / Fold change vs veh, WDR75 / RFU, AHCTF1 / Fold change vs veh, AHCTF1 / RFU, TFRC / Fold change vs veh, TFRC / RFU, ZDHHC17 / Fold change vs veh, ZDHHC17 / RFU, NOM1 / Fold change vs veh, NOM1 / RFU, ARL8B / Fold change vs veh, ARL8B / RFU, ZBTB11 / Fold change vs veh, ZBTB11 / RFU, TAMM41 / Fold change vs veh, TAMM41 / RFU, KIAA1704 /// LOC100996395 / Fold change vs veh, KIAA1704 /// LOC100996395 / RFU, ING1 / Fold change vs veh, ING1 / RFU, TRMT61B / Fold change vs veh, TRMT61B / RFU, FUBP3 / Fold change vs veh, FUBP3 / RFU, TP53 / Fold change vs veh, TP53 / RFU, TNKS2 / Fold change vs veh, TNKS2 / RFU, ZFP14 / Fold change vs veh, ZFP14 / RFU, ACTR2 / Fold change vs veh, ACTR2 / RFU, PPP3R1 / Fold change vs veh, PPP3R1 / RFU, PIK3R1 / Fold change vs veh, PIK3R1 / RFU, HNRNPA1 / Fold change vs veh, HNRNPA1 / RFU, RNF170 / Fold change vs veh, RNF170 / RFU, ZNF28 / Fold change vs veh, ZNF28 / RFU, RNGTT / Fold change vs veh, RNGTT / RFU, OGT / Fold change vs veh, OGT / RFU, BRD1 / Fold change vs veh, BRD1 / RFU, MARS / Fold change vs veh, MARS / RFU, ZNF655 / Fold change vs veh, ZNF655 / RFU, FAHD1 / Fold change vs veh, FAHD1 / RFU, BDP1 / Fold change vs veh, BDP1 / RFU, LRRCC1 / Fold change vs veh, LRRCC1 / RFU, ARID1A / Fold change vs veh, ARID1A / RFU, ZNF146 / Fold change vs veh, ZNF146 / RFU, ZNF330 / Fold change vs veh, ZNF330 / RFU, GPN3 / Fold change vs veh, GPN3 / RFU, C9orf123 / Fold change vs veh, C9orf123 / RFU, N4BP2L2 / Fold change vs veh, N4BP2L2 / RFU, ARFIP1 / Fold change vs veh, ARFIP1 / RFU, FAM179B / Fold change vs veh, FAM179B / RFU, BCL10 / Fold change vs veh, BCL10 / RFU, UHRF1BP1L / Fold change vs veh, UHRF1BP1L / RFU, BET1 / Fold change vs veh, BET1 / RFU, CNOT2 / Fold change vs veh, CNOT2 / RFU, ZNF268 / Fold change vs veh, ZNF268 / Fold change vs veh, ZNF507 / RFU, DGCR2 / Fold change vs veh, DGCR2 / RFU, WDSUB1 / Fold change vs veh, WDSUB1 / Fold change vs veh, HSP90B1 /// MIR3652 / RFU, ADSS / Fold change vs veh, ADSS / RFU, GK / Fold change vs veh, GK / RFU, ZNF148 / Fold change vs veh, ZNF148 / RFU, TAF9 / Fold change vs veh, TAF9 / RFU, SLC1A5 / Fold change vs veh, SLC1A5 / RFU, SLMO2 / Fold change vs veh, SLMO2 / RFU, ABCC4 / Fold change vs veh, ABCC4 / RFU, LOC101060439 /// RAP1B / Fold change vs veh, LOC101060439 /// RAP1B / RFU, RFX7 / Fold change vs veh, RFX7 / RFU, GTPBP10 / Fold change vs veh, GTPBP10 / RFU, CNEP1R1 / Fold change vs veh, CNEP1R1 / RFU, BIVM-ERCC5 /// ERCC5 / Fold change vs veh, BIVM-ERCC5 /// ERCC5 / RFU, ILF3 / Fold change vs veh, ILF3 / RFU 11762660_at / Fold change /veh 11762660_at / RFU VCAN (11757783_s_at) / Fold change /veh VCAN (11757783_s_at) / RFU DDX43 (11728927_at) / Fold change /veh DDX43 (11728927_at) / RFU KRT8 (11758188_x_at) / Fold change /veh KRT8 (11758188_x_at) / RFU NKD1 (11759106_at) / Fold change /veh NKD1 (11759106_at) / RFU SRD5A1 (11742802_a_at) / Fold change /veh SRD5A1 (11742802_a_at) / RFU TPSAB1 /// TPSB2 (11721975_s_at) / Fold change /veh TPSAB1 /// TPSB2 (11721975_s_at) / RFU GSTM3 (11746129_a_at) / Fold change /veh GSTM3 (11746129_a_at) / RFU IL23R (11737362_x_at) / Fold change /veh IL23R (11737362_x_at) / RFU TMEM51 (11727254_a_at) / Fold change /veh TMEM51 (11727254_a_at) / RFU PIWIL2 (11732686_x_at) / Fold change /veh PIWIL2 (11732686_x_at) / RFU ORM1 (11744905_x_at) / Fold change /veh ORM1 (11744905_x_at) / RFU CCDC152 (11743942_at) / Fold change /veh CCDC152 (11743942_at) / RFU ECM1 (11717891_a_at) / Fold change /veh ECM1 (11717891_a_at) / RFU IL23R (11748794_a_at) / Fold change /veh IL23R (11748794_a_at) / RFU TNFAIP8L3 (11732012_x_at) / Fold change /veh TNFAIP8L3 (11732012_x_at) / RFU MBOAT4 (11741988_at) / Fold change /veh MBOAT4 (11741988_at) / RFU 11764193_at / Fold change /veh 11764193_at / RFU TMEM53 (11763286_at) / Fold change /veh TMEM53 (11763286_at) / RFU MAGEB2 (11727129_at) / Fold change /veh MAGEB2 (11727129_at) / RFU TMEM200A (11744735_a_at) / Fold change /veh TMEM200A (11744735_a_at) / RFU CCDC152 (11751479_a_at) / Fold change /veh CCDC152 (11751479_a_at) / RFU FAM211A (11726209_a_at) / Fold change /veh FAM211A (11726209_a_at) / RFU RGS16 (11746705_a_at) / Fold change /veh RGS16 (11746705_a_at) / RFU VCAN (11755009_s_at) / Fold change /veh VCAN (11755009_s_at) / RFU RHOB (11743442_s_at) / Fold change /veh RHOB (11743442_s_at) / RFU RGS16 (11720943_a_at) / Fold change /veh RGS16 (11720943_a_at) / RFU RGS16 (11720944_at) / Fold change /veh RGS16 (11720944_at) / RFU, VPS4B / Fold change vs veh, VPS4B / RFU, CREB1 / Fold change vs veh, CREB1 / RFU, DNAJC13 / Fold change vs veh, DNAJC13 / RFU, GNAQ / Fold change vs veh, GNAQ / RFU, CDK5R1 / Fold change vs veh, CDK5R1 / RFU, ZRANB3 / Fold change vs veh, ZRANB3 / RFU, CUL4A / Fold change vs veh, CUL4A / RFU, CCNY / Fold change vs veh, CCNY / RFU, UFL1 / Fold change vs veh, UFL1 / RFU, COG3 / Fold change vs veh, COG3 / RFU, DIAPH2 / Fold change vs veh, DIAPH2 / RFU, SKA2 / Fold change vs veh, SKA2 / RFU, AFF3 / Fold change vs veh, AFF3 / RFU, LMF1 / Fold change vs veh, LMF1 / RFU, IPO11 / Fold change vs veh, IPO11 / RFU, DFFB / Fold change vs veh, DFFB / RFU, FOXP1 / Fold change vs veh, FOXP1 / RFU, CARD8 / Fold change vs veh, CARD8 / RFU, STRN3 / Fold change vs veh, STRN3 / RFU, ADK / Fold change vs veh, ADK / RFU, RASSF2 / Fold change vs veh, RASSF2 / RFU, WIPF1 / Fold change vs veh, WIPF1 / RFU, LARP1B / Fold change vs veh, LARP1B / RFU, RASA1 / Fold change vs veh, RASA1 / RFU, RB1 / Fold change vs veh, RB1 / RFU, PPFIA1 / Fold change vs veh, PPFIA1 / RFU, MAT2A / Fold change vs veh, MAT2A / RFU, CCT5 / Fold change vs veh, CCT5 / RFU, WDR92 / Fold change vs veh, WDR92 / RFU, CUX1 / Fold change vs veh, CUX1 / RFU, TTC7A / Fold change vs veh, TTC7A / RFU, TMEM135 / Fold change vs veh, TMEM135 / RFU, DEPTOR / Fold change vs veh, DEPTOR / RFU, CPM / Fold change vs veh, CPM / RFU, DNAJB6 / Fold change vs veh, DNAJB6 / RFU, CACNA2D3 / Fold change vs veh, CACNA2D3 / RFU, DTX4 / Fold change vs veh, DTX4 / RFU, TFCP2 / Fold change vs veh, TFCP2 / RFU, GMCL1 /// GMCL1P1 / Fold change vs veh, GMCL1 /// GMCL1P1 / RFU, AEBP2 / Fold change vs veh, AEBP2 / RFU, SNHG1 /// SNORD22 /// SNORD25 /// SNORD26 /// SNORD27 /// SNORD28 /// SNORD29 /// SNORD31 / Fold change vs veh, SNHG1 /// SNORD22 /// SNORD25 /// SNORD26 /// SNORD27 /// SNORD28 /// SNORD29 /// SNORD31 / Fold change (Aza/veh), C12orf56 (ProbeSet 11735607_a_at) / Fold change (ACY-1035/veh), C12orf56 (ProbeSet 11735607_a_at) / Fold change (Aza/veh), FGFR1OP (ProbeSet 11751329_s_at) / Fold change (ACY-1035/veh), FGFR1OP (ProbeSet 11751329_s_at) / Fold change (Aza/veh), VPS36 (ProbeSet 11739960_a_at) / Fold change (ACY-1035/veh), VPS36 (ProbeSet 11739960_a_at) / RFU SYPL1 (11715823_x_at) / Fold change /veh SYPL1 (11715823_x_at) / RFU IGFBP7 (11715501_s_at) / Fold change /veh IGFBP7 (11715501_s_at) / RFU REEP3 (11722064_at) / Fold change /veh REEP3 (11722064_at) / RFU IGLL1 (11728026_x_at) / Fold change /veh IGLL1 (11728026_x_at): dose or concentration left out as unconfirmed", "settings": "ProbeSet 11753623_s_at; LIST D"}
{"smiles": "Nc1ccc(-c2cccs2)cc1NC(=O)c1ccc2c(c1)cc(C1CC1)n2CCN1CCOCC1", "note": "[ACY-1035]", "values": [{"measurement": "Fold change vs veh, LOC101060439 /// RAP1B", "value": 0.85}]}
